Results taken from PubChem BioAssay AID248 (DTP/NCI, 2004).
Values joined by “and” are separate entries in the source; they are usually repeats but may differ in a detail not shown here. Equal values may be shown once. Toxic doses and inconclusive results are not listed. Cut-off read from the data, not from the text of the source: active = T/C of 150% or more; inactive = T/C below 125%.

System: L1210 leukemia ip in BDF1 mice, survival T/C
Test: NCI In Vivo Anticancer Drug Screen. Data for tumor model L1210 Leukemia (intraperitoneal) in B6D2F1 (BDF1) mice
Settings: endpoint: mean survival time, higher = longer survival
How it was run: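 Antitumor effect is assessed in tumor-bearing animals. Survival in the compound arm is compared with a vehicle-dosed control arm and expressed as their quotient.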

[1] = dose: 100.0 mg/kg/injection, schedule: Q01DX001 (ip), vehicle: saline
[2] = dose: 200.0 mg/kg/injection, schedule: Q01DX001 (ip), vehicle: saline
[3] = dose: 100.0 mg/kg/injection, schedule: Q04DX002 (ip), vehicle: Klucel (hydroxypropylcellulose) (HPC)
[4] = dose: 200.0 mg/kg/injection, schedule: Q04DX002 (ip), vehicle: Klucel (hydroxypropylcellulose) (HPC)
[5] = dose: 400.0 mg/kg/injection, schedule: Q04DX002 (ip), vehicle: Klucel (hydroxypropylcellulose) (HPC)
[6] = dose: 200.0 mg/kg/injection, schedule: Q04DX003 (ip), vehicle: saline with Tween-80
[7] = dose: 100.0 mg/kg/injection, schedule: Q04DX003 (ip), vehicle: Klucel (hydroxypropylcellulose) (HPC)
[8] = dose: 200.0 mg/kg/injection, schedule: Q04DX003 (ip), vehicle: Klucel (hydroxypropylcellulose) (HPC)
[9] = dose: 400.0 mg/kg/injection, schedule: Q04DX003 (ip), vehicle: Klucel (hydroxypropylcellulose) (HPC)
[10] = dose: 100.0 mg/kg/injection, schedule: Q01DX001 (ip), vehicle: carboxymethylcellulose (CMC)
[11] = dose: 200.0 mg/kg/injection, schedule: Q01DX001 (ip), vehicle: carboxymethylcellulose (CMC)
[12] = dose: 400.0 mg/kg/injection, schedule: Q01DX001 (ip), vehicle: carboxymethylcellulose (CMC)
[13] = dose: 100.0 mg/kg/injection, schedule: Q01DX009 (ip), vehicle: saline with Tween-80
[14] = dose: 200.0 mg/kg/injection, schedule: Q01DX009 (ip), vehicle: saline with Tween-80
[15] = dose: 400.0 mg/kg/injection, schedule: Q01DX009 (ip), vehicle: saline with Tween-80
[16] = dose: 25.0 mg/kg/injection, schedule: Q04DX003 (ip), vehicle: saline
[17] = dose: 50.0 mg/kg/injection, schedule: Q01DX009 (ip), vehicle: saline
[18] = dose: 100.0 mg/kg/injection, schedule: Q01DX009 (ip), vehicle: saline

Measured: T/C

O=NN1CCCCCC1C(=O)O (configuration not stated)
inactive: [1] 108 % of control | [2] 102 % of control

COc1ccc(C(=O)/C=C/c2cccc(OCc3ccccc3)c2)cc1
inactive: dose: 25.0 mg/kg/injection, schedule: Q04DX002 (ip), vehicle: Klucel (hydroxypropylcellulose) (HPC) 102 % of control | dose: 50.0 mg/kg/injection, schedule: Q04DX002 (ip), vehicle: Klucel (hydroxypropylcellulose) (HPC) 91 % of control | [3] 102 % of control | [4] 92 % of control | [5] 103 % of control

COc1cc(-c2nc(-c3ccc(N=Cc4ccc(N(CCOS(C)(=O)=O)CCOS(C)(=O)=O)cc4C)cc3)cs2)cc(OC)c1OC
inactive: dose: 25.0 mg/kg/injection, schedule: Q04DX003 (ip), vehicle: saline with Tween-80 102 % of control | dose: 50.0 mg/kg/injection, schedule: Q04DX003 (ip), vehicle: saline with Tween-80 102 % of control | dose: 66.0 mg/kg/injection, schedule: Q04DX003 (ip), vehicle: saline with Tween-80 115 % of control and 120 % of control | dose: 150.0 mg/kg/injection, schedule: Q04DX003 (ip), vehicle: saline with Tween-80 96 % of control and 89 % of control | [6] 110 % of control

O=C(OCc1ccccc1CN1CCOCC1)c1ccc([N+](=O)[O-])cc1
inactive: [3] 105 % of control | [4] 98 % of control | [5] 98 % of control

CCCCN(CCCC)/C(=C/C(=O)OC)C(=O)OC
inactive: [7] 94 % of control | [8] 100 % of control | [9] 94 % of control

O=[N+]([O-])c1ccc(Oc2ccc(C3N(c4ccccc4)CCN3c3ccccc3)cc2)c([N+](=O)[O-])c1
inactive: dose: 25.0 mg/kg/injection, schedule: Q01DX009 (ip), vehicle: water 91 % of control | dose: 50.0 mg/kg/injection, schedule: Q01DX009 (ip), vehicle: water 91 % of control | dose: 100.0 mg/kg/injection, schedule: Q01DX009 (ip), vehicle: water 86 % of control | dose: 200.0 mg/kg/injection, schedule: Q01DX009 (ip), vehicle: water 91 % of control | dose: 400.0 mg/kg/injection, schedule: Q01DX009 (ip), vehicle: water 86 % of control

Cc1ccccc1SCN(CSc1ccccc1C)C(C)(C)CC(C)(C)C
inactive: [10] 101 % of control

CCCCCCCCCCCCCCCCS(=O)(=O)N/N=C/c1ccc(N(C)C)cc1
inactive: [10] 92 % of control | [11] 87 % of control | [12] 89 % of control

O=C1CCC(=O)N1CC(O)COc1ccccc1 (configuration not stated)
inactive: [13] 101 % of control | [7] 93 % of control | [14] 101 % of control | [8] 97 % of control | [15] 110 % of control | [9] 106 % of control

CCCCC(SC(CC)(C(C)=O)c1ccccc1)C(N)=O (configuration not stated)
inactive: [10] 102 % of control | [11] 113 % of control | [12] 96 % of control

CCOC(=O)N1CC2CCc3c(ccc4ccccc34)N2C1=O (configuration not stated)
inactive: dose: 100.0 mg/kg/injection, schedule: Q01DX001 (ip), vehicle: other 97 % of control | dose: 200.0 mg/kg/injection, schedule: Q01DX001 (ip), vehicle: other 92 % of control | dose: 400.0 mg/kg/injection, schedule: Q01DX001 (ip), vehicle: other 95 % of control

COc1ccc(C)cc1NC(=O)c1ccc(F)cc1
inactive: dose: 100.0 mg/kg/injection, schedule: Q01DX009 (ip), vehicle: Klucel (hydroxypropylcellulose) (HPC) 94 % of control | dose: 200.0 mg/kg/injection, schedule: Q01DX009 (ip), vehicle: Klucel (hydroxypropylcellulose) (HPC) 97 % of control | dose: 400.0 mg/kg/injection, schedule: Q01DX009 (ip), vehicle: Klucel (hydroxypropylcellulose) (HPC) 100 % of control

CCOC(=O)NC1=C(Cl)C(=O)C(NC(=O)OCC)=C(Cl)C1=O
inactive: [7] 102 % of control | [8] 92 % of control

CC1C2CCC(C2)C1N (configuration not stated)
inactive: dose: 25.0 mg/kg/injection, schedule: Q01DX009 (ip), vehicle: saline 96 % of control | [16] 94 % of control | [17] 104 % of control | dose: 50.0 mg/kg/injection, schedule: Q04DX003 (ip), vehicle: saline 105 % of control | [18] 98 % of control | dose: 100.0 mg/kg/injection, schedule: Q04DX003 (ip), vehicle: saline 112 % of control and 92 % of control and 93 % of control | dose: 200.0 mg/kg/injection, schedule: Q04DX003 (ip), vehicle: saline 93 % of control

CC(=O)NCC[CH2][Sn]([c]1ccccc1)([c]1ccccc1)[c]1ccccc1
inactive: [17] 100 % of control | [18] 100 % of control | dose: 200.0 mg/kg/injection, schedule: Q01DX009 (ip), vehicle: saline 110 % of control

Nc1ccc2c(c1)C(=O)c1ccccc1-2
inactive: dose: 100.0 mg/kg/injection, schedule: Q01DX001 (ip), vehicle: Klucel (hydroxypropylcellulose) (HPC) 88 % of control | dose: 200.0 mg/kg/injection, schedule: Q01DX001 (ip), vehicle: Klucel (hydroxypropylcellulose) (HPC) 95 % of control | dose: 400.0 mg/kg/injection, schedule: Q01DX001 (ip), vehicle: Klucel (hydroxypropylcellulose) (HPC) 97 % of control

Cc1c2oc3c(C)c(N)cc(C(=O)NC4C(=O)NC(C(C)C)C(=O)N5CCCC5C(=O)N(C)CC(=O)N(C)C(C(C)C)C(=O)OC4C)c3nc-2c(C(=O)NC2C(=O)NC(C(C)C)C(=O)N3CCCC3C(=O)N(C)CC(=O)N(C)C(C(C)C)C(=O)OC2C)c(N)c1=O (configuration not stated)
inactive: dose: 75.0 micrograms/kg/injection, schedule: Q01DX009 (ip), vehicle: saline + alcohol 121 % of control | dose: 150.0 micrograms/kg/injection, schedule: Q01DX009 (ip), vehicle: saline + alcohol 113 % of control | dose: 200.0 micrograms/kg/injection, schedule: Q01DX009 (ip), vehicle: saline + alcohol 102 % of control | dose: 300.0 micrograms/kg/injection, schedule: Q01DX009 (ip), vehicle: saline + alcohol 90 % of control | dose: 300.0 micrograms/kg/injection, schedule: Q04DX003 (ip), vehicle: saline + alcohol 119 % of control | dose: 800.0 micrograms/kg/injection, schedule: Q04DX003 (ip), vehicle: saline + alcohol 106 % of control | dose: 1200.0 micrograms/kg/injection, schedule: Q04DX003 (ip), vehicle: saline + alcohol 87 % of control

Cc1ccc(S(=O)(=O)N2C(=O)CCC2C(=O)O)cc1 (configuration not stated)
inactive: dose: 100.0 mg/kg/injection, schedule: Q01DX001 (ip), vehicle: saline with Tween-80 100 % of control | [13] 98 % of control | dose: 200.0 mg/kg/injection, schedule: Q01DX001 (ip), vehicle: saline with Tween-80 96 % of control | [14] 96 % of control | dose: 400.0 mg/kg/injection, schedule: Q01DX001 (ip), vehicle: saline with Tween-80 97 % of control | [15] 102 % of control

O=C1c2ccccc2C(=Cc2ccccc2)c2ccccc21
inactive: [13] 107 % of control | dose: 100.0 mg/kg/injection, schedule: Q04DX003 (ip), vehicle: saline with Tween-80 101 % of control | [14] 107 % of control | [6] 100 % of control | [15] 104 % of control | dose: 400.0 mg/kg/injection, schedule: Q04DX003 (ip), vehicle: saline with Tween-80 92 % of control

OCCN(Cc1cccnc1)Cc1ccccn1
inactive: dose: 9.38 mg/kg/injection, schedule: Q01DX001 (ip), vehicle: saline 94 % of control | dose: 18.75 mg/kg/injection, schedule: Q01DX001 (ip), vehicle: saline 100 % of control

O=C(CN1C(=O)C2CCCCC2C1=O)N1CC1 (configuration not stated)
inactive: [10] 110 % of control | [11] 103 % of control

COc1ccc(C(O)(c2ccccc2)C(OC(=O)CCl)c2ccccc2)cc1 (configuration not stated)
inactive: [14] 90 % of control

CCCCNC(=O)n1ncc2ccc([N+](=O)[O-])cc21
inactive: [1] 105 % of control | [2] 105 % of control | dose: 400.0 mg/kg/injection, schedule: Q01DX001 (ip), vehicle: saline 102 % of control

FC(F)(F)c1ccc2c(c1)N(CCCN1CCN(CCN3CCOCC3)CC1)c1ccccc1S2
inactive: dose: 0.78 mg/kg/injection, schedule: Q01DX009 (ip), vehicle: saline 100 % of control | dose: 1.56 mg/kg/injection, schedule: Q01DX009 (ip), vehicle: saline 106 % of control | dose: 3.12 mg/kg/injection, schedule: Q01DX009 (ip), vehicle: saline 95 % of control | dose: 12.5 mg/kg/injection, schedule: Q04DX003 (ip), vehicle: saline 108 % of control | [16] 116 % of control

CC1CCC2C(C1)N(c1ccccc1)OC2(C)C (configuration not stated)
inactive: [7] 100 % of control | [8] 94 % of control | [9] 102 % of control
